Measured values as given in US12491185B2, “Inhibitors of mPTP” (NRG Therapeutics Ltd, priority 2023, dated 2025).

Key:
mPTP [1] = test: mPTP activity (Ca2+ retention) assay in isolated rat liver mitochondria; assay type: biochemical; details: examples tested by different contract research organisations, believed comparable
Summary of the method: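 pIC50 was taken from Fluo5N fluorescence at 10 min after a 75 μM CaCl2 bolus, scaled between DMSO (0%) and 5 μM cyclosporin A (100%). Compounds, ten half-log concentrations from 30 μM to 1 nM final, sat 10 min at RT with fresh female Sprague Dawley rat liver mitochondria energized by succinate plus rotenone.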

mPTP [2] = test: mPTP activity assay in isolated rat brain mitochondria; assay type: biochemical; details: fluorescence at 10 min timepoint
Protocol: MPTP activity was measured in brain mitochondria freshly isolated from female Sprague Dawley (250 to 300 gram) rats. Anaesthetised rats were perfused in-situ with −40 ml cold Dulbecco's Phosphate Buffered Saline (DPBS), then brains dissected and transferred into 30 ml Isolation Buffer (225 mM mannitol, 75 mM sucrose, 1 mM EGTA, adjusted to pH 7.4 with 1M NaOH). The brain was minced using tweezers and a scalpel into −5 mm pieces then transferred into a 50 ml Potterton Dounce homogenization tube on ice containing 10 ml ice-cold isolation buffer (as above with addition of Complete Protease inhibitor; 1 tablet per 50 ml buffer). Homogenisation was carried out using a teflon pestle at 1800 rpm. The slurry was centrifuged at 2000 g for 10 min at 4° C., then the supernatant centrifuged at 12,000 g for 9 min. The pellet was resuspended with a dounce homogeniser in isolation buffer as above but with the addition of 0.02% digitonin, centrifuged at 12,000 g for 11 min and finally resuspended in 5 ml modified isolation buffer (as above but with EGTA reduced to 0.1 mM).
Test compounds were prepared in 384 well polypropylene assay plates as described above for the liver mitochondria assay. A stock mitochondria/Fluo5N assay solution was prepared in 5.6 ml assay buffer (120 mM mannitol, 40 mM MOPS, 5 mM KH2PO4, 60 mM KCl, 10 mM pyruvate, 2 mM malate, 2 mM MgCl2, 20 μM ADP, 1.26 μM oligomycin A, adjusted to pH 7.4) supplemented with Fluo5N pentapotassium salt (2 μM) and 1 ml mitochondria suspension, then transferred (15 μl) into the assay plate containing test compounds and incubated for 10 min at RT. Assay plates were then transferred to a FLIPR Tetra plate reader (Molecular Devices). Dye fluorescence was then measured every 3 sec for a total of 10 min.

Row | SMILES | mPTP Rat liver pIC50 (mPTP [1]) | mPTP Rat brain pIC50 (mPTP [2])
1 | Cn1nc(C(=O)NCC2(Cc3ccc(F)cc3F)CCCO2)[nH]c1=O (single isomer, unassigned) [Example 230] | 6.18 | 6.40
2 | Cn1nc(C(=O)NCC2(Cc3ccc(F)cc3F)CC23CC3)[nH]c1=O (single isomer, unassigned) [Example 231, N-((1-(2,4-difluorobenzyl)spiro[2.2]pentan-1-yl)methyl)-1-methyl-5-oxo-4,5-dihydro-1H-1,2,4-triazole-3-carboxamide] | 6.61 | 7.37
3 | Cn1nc(C(=O)NCC2(Cc3ccc(F)cc3F)CC23CC3)[nH]c1=O (single isomer, unassigned) [Example 232, N-((1-(2,4-difluorobenzyl)spiro[2.2]pentan-1-yl)methyl)-1-methyl-5-oxo-4,5-dihydro-1H-1,2,4-triazole-3-carboxamide] | 6.65 | 7.56
4 | O=C(NCC1(Cc2ccc(F)cc2F)CC12CC2)c1noc(=O)[nH]1 (single isomer, unassigned) [Example 233] | 5.77 | 7.10
5 | O=C(NCC1(Cc2ccc(F)cc2F)CC12CC2)c1noc(=O)[nH]1 (single isomer, unassigned) [Example 234] | 5.24 | 6.30
6 | O=C(NCC1(Cc2ccc(F)cc2F)CC12CC2)c1nccc(=O)[nH]1 (single isomer, unassigned) [Example 236] | 6.11 | 7.18
7 | CC(c1ccc(F)cc1F)[C@@H](CNC(=O)c1nn(C)c(=O)[nH]1)C1CC1 (single isomer, unassigned) [Example 237] | 6.56 | 7.46
8 | Cn1nc(C(=O)NCC(C)(Cc2ccc(F)cc2F)C2CC2)[nH]c1=O (single isomer, unassigned) [Example 240, N-(2-cyclopropyl-3-(2,4-difluorophenyl)-2-methylpropyl)-1-methyl-5-oxo-4,5-dihydro-1H-1,2,4-triazole-3-carboxamide] | 6.91 | 7.61
9 | O=C(NCC1(Cc2ccc(F)cc2F)CC(F)C1)c1nccc(=O)[nH]1 (single isomer, unassigned) [Example 248] | 6.16 | 7.05
10 | CC(CNC(=O)c1nccc(=O)[nH]1)(Cc1ccc(F)cc1)C1CC1 (single isomer, unassigned) [Example 251] | 6.21 | 7.06
11 | CCC(F)(CNC(=O)c1nccc(=O)[nH]1)Cc1ccc(F)cc1F (single isomer, unassigned) [Example 255, N-(2-(2,4-difluorobenzyl)-2-fluorobutyl)-6-oxo-1,6-dihydropyrimidine-2-carboxamide] | 6.45 | 7.29
12 | CCC(F)(CNC(=O)c1nccc(=O)[nH]1)Cc1ccc(F)cc1F (single isomer, unassigned) [Example 256, N-(2-(2,4-difluorobenzyl)-2-fluorobutyl)-6-oxo-1,6-dihydropyrimidine-2-carboxamide] | 5.09 | 6.13
13 | CC(CNC(=O)c1ncc(F)c(=O)[nH]1)(Cc1ccc(F)cc1F)C1CC1 (single isomer, unassigned) [Example 257, N-[2-cyclopropyl-3-(2,4-difluorophenyl)-2-methylpropyl]-5-fluoro-4-oxo-3H-pyrimidine-2-carboxamide] | 6.82 | 8.37
14 | CC(CNC(=O)c1ncc(F)c(=O)[nH]1)(Cc1ccc(F)cc1F)C1CC1 (single isomer, unassigned) [Example 258, N-[2-cyclopropyl-3-(2,4-difluorophenyl)-2-methylpropyl]-5-fluoro-4-oxo-3H-pyrimidine-2-carboxamide] | 6.39 | 7.71
